Data as given in ChEMBL document CHEMBL1201862, “PubChem BioAssay data set” (2004).
The source made the active and inactive calls.

Key:
[1] = molecular target: T1, RNA-binding protein pos-1 (Caenorhabditis elegans, UniProt G5EF15); test: inhibitors of POS-1/mex-3 RNA binding, dose response, biochemical, fluorescence polarization (AID 1964);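 also: purified POS-1 fused to maltose binding protein made in E. coli; potency of compounds blocking POS-1 binding to fluorescent RNA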
T1 sequence (G5EF15 whole entry): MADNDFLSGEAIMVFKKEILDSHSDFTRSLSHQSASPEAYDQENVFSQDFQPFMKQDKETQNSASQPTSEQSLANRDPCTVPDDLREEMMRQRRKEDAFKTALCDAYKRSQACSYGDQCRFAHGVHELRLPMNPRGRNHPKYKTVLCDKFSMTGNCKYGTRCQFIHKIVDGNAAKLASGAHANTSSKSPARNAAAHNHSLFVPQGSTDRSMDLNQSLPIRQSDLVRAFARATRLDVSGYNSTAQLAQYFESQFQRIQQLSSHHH

[2] = molecular target: T2, Zinc finger protein mex-5 (Caenorhabditis elegans, UniProt Q9XUB2); test: MEX-5/TCR-2 RNA interaction inhibitors, dose response, biochemical, C. elegans, fluorescence polarization (AID 1960)
T2 sequence (Q9XUB2 whole entry): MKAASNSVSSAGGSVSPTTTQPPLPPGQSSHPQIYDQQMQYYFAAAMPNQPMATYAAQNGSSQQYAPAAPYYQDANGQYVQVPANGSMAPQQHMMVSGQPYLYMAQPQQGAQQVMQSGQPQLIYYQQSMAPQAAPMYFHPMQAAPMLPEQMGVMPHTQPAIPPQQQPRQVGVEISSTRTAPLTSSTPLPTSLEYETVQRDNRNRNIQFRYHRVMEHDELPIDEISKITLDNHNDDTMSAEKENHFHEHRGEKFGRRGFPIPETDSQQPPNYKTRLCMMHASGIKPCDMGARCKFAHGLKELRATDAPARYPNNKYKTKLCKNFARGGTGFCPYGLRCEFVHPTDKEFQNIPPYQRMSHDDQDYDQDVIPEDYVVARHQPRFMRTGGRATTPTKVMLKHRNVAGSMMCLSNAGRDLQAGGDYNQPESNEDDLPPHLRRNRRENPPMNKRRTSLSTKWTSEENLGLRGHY

[3] = Luminescence Cell-Based Dose Response HTS to Identify Inhibitors of 5'UTR Stem-Loop Driven Prion Protein mRNA Translation in H4 Neuroglioblastoma Cells. [Related pubchem assays: 1827 (Project Summary), 1813 (Primary HTS)]; assay type: functional
[4] = molecular target: T3, Protein RecA (Mycobacterium tuberculosis, UniProt P9WHJ3); test: Fluorescence Cell-Free Homogeneous Dose Retest to Identify Inhibitors of RecA-Intein Splicing Activity. [Related pubchem assays (depositor defined):AID2097, AID2223, AID489010, AID492950]; assay type: functional
T3 sequence (P9WHJ3 whole entry): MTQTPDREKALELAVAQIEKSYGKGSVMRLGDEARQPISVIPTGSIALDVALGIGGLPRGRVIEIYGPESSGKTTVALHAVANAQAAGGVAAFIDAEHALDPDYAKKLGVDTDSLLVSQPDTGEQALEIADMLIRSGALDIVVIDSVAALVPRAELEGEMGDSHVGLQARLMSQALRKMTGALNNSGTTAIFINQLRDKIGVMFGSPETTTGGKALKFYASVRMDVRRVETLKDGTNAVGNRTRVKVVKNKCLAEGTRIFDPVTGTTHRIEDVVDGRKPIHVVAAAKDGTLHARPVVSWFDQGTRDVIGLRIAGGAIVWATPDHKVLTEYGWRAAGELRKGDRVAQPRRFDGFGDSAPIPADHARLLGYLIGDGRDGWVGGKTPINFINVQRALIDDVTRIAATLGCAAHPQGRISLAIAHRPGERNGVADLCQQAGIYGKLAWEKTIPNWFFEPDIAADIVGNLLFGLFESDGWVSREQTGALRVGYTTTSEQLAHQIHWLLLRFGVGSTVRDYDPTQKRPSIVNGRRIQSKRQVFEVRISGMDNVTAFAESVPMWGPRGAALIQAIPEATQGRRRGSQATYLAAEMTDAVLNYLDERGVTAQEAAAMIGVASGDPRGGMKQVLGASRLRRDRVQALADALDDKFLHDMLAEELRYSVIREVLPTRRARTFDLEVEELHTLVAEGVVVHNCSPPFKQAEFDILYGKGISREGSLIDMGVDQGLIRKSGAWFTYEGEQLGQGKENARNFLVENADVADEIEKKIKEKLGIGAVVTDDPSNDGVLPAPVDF

[5] = inhibitors of SNCA 5'UTR-driven reporter translation, confirmation, H4 neuroglioma cells, luminescence (AID 1988); assay type: functional, cell-based
[6] = molecular target: Cystic fibrosis transmembrane conductance regulator/Golgi-associated PDZ and coiled-coil motif-containing protein (Homo sapiens, UniProt P13569+Q9HD26); test: CAL PDZ peptide-binding inhibitors, dose response, biochemical, fluorescence polarization, Cerulean-tagged CAL PDZ, cherry-picks (AID 504773)
Cystic fibrosis transmembrane conductance regulator/Golgi-associated PDZ and coiled-coil motif-containing protein, sequence (P13569 whole entry, other chains not shown): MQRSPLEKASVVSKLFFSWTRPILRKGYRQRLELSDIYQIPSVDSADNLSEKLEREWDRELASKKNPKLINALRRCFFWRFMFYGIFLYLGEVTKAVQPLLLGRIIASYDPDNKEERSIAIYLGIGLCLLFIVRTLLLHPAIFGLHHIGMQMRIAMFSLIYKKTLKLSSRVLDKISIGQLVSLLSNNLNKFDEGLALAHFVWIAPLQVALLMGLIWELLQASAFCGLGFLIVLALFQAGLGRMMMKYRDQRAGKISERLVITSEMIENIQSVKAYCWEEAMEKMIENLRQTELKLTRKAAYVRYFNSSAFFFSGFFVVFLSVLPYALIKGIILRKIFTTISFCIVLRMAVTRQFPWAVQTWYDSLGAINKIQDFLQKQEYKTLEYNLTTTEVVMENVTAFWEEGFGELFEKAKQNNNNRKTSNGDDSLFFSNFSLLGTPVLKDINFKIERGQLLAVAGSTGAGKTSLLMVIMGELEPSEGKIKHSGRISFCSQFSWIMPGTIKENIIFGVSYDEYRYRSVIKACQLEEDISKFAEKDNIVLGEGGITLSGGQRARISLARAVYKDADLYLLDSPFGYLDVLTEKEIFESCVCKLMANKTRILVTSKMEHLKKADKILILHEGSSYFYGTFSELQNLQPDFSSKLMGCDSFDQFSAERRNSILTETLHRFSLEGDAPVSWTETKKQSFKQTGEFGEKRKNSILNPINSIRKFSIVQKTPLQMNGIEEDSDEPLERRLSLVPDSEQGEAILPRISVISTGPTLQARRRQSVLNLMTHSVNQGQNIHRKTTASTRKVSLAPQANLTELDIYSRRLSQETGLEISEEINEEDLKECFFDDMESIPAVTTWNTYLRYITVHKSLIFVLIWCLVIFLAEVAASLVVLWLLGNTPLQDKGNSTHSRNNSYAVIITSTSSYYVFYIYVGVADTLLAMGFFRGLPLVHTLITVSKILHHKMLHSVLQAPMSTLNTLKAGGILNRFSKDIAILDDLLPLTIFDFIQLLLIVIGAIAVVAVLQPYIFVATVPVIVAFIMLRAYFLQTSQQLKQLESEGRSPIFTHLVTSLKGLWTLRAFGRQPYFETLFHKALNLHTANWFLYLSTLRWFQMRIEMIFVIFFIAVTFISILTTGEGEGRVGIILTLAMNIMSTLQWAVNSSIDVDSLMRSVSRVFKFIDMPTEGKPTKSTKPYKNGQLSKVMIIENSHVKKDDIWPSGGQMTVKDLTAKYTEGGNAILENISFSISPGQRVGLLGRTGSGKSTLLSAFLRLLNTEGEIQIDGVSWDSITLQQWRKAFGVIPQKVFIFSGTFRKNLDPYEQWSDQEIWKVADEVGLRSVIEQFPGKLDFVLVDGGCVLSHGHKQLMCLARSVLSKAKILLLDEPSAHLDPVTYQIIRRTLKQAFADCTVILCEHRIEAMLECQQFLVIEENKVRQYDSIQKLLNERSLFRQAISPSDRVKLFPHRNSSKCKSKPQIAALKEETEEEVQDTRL

[7] = system: Vero; test: Vero cell cytotoxicity, cytotoxicity control for flavivirus capping enzyme inhibitors (AID 588742); assay type: functional; conditions: Chlorocebus sabaeus
[8] = inhibitors of firefly luciferase expression or activity, dose response, H4 neuroglioma cells, luminescence (AID 1990); assay type: functional, cell-based
[9] = molecular target: Genome polyprotein (dengue virus type 2, UniProt P29990); test: Dengue-2 NS5 methyltransferase inhibitors, primary screen, biochemical, confirmation dose response (AID 588689); assay type: functional
Genome polyprotein, sequence (P29990 2492-3391 limits assumed): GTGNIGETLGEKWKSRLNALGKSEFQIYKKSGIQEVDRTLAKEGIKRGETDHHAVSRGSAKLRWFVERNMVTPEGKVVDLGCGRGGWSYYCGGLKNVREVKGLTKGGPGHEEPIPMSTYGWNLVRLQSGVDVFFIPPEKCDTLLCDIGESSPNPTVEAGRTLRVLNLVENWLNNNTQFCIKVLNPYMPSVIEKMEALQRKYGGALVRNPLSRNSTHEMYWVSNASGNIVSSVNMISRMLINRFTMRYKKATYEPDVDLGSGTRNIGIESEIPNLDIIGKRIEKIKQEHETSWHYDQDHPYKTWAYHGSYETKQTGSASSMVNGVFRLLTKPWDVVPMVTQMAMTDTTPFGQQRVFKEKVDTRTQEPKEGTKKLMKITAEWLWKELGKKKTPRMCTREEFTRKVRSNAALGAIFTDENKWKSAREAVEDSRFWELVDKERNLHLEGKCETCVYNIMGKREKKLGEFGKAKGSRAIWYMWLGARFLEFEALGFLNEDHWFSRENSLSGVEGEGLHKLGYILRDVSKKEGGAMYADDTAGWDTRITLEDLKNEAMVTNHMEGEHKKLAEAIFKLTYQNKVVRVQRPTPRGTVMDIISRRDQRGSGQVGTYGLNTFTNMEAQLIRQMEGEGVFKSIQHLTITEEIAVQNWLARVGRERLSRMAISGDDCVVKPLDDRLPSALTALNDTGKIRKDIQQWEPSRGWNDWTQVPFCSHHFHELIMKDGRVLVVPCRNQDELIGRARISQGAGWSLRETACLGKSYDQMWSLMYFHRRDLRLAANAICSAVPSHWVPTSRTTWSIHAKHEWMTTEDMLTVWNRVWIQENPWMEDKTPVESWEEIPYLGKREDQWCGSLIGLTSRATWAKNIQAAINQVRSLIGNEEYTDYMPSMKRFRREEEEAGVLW

[10] = CAL PDZ domain peptide-binding inhibitors, dose response, biochemical, fluorescence polarization, untagged CAL PDZ, dry powder (AID 602255); assay type: functional
[11] = molecular target: Tyrosyl-DNA phosphodiesterase 2 (Homo sapiens, UniProt O95551); test: human TDP2 enzyme inhibitors, dose response, biochemical, epi absorbance, IC50 (AID 743297)
Tyrosyl-DNA phosphodiesterase 2, sequence (O95551 whole entry): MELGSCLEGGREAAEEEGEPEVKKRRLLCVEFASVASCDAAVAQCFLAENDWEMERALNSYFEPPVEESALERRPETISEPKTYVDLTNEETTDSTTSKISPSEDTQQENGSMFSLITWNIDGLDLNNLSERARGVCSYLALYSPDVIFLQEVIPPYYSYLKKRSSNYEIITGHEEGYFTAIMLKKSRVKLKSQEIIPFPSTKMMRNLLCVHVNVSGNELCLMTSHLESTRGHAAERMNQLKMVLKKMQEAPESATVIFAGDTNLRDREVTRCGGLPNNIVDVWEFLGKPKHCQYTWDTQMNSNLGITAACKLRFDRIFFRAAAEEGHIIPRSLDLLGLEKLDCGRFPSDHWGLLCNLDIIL

[12] = molecular target: Glucose-6-phosphate 1-dehydrogenase (Homo sapiens, UniProt P11413); test: human G6PD enzyme inhibitors, dose response, selectivity assay for P. falciparum G6PD inhibitor project, biochemical, fluorescence (AID 504792); assay type: functional
Glucose-6-phosphate 1-dehydrogenase, sequence (P11413 whole entry): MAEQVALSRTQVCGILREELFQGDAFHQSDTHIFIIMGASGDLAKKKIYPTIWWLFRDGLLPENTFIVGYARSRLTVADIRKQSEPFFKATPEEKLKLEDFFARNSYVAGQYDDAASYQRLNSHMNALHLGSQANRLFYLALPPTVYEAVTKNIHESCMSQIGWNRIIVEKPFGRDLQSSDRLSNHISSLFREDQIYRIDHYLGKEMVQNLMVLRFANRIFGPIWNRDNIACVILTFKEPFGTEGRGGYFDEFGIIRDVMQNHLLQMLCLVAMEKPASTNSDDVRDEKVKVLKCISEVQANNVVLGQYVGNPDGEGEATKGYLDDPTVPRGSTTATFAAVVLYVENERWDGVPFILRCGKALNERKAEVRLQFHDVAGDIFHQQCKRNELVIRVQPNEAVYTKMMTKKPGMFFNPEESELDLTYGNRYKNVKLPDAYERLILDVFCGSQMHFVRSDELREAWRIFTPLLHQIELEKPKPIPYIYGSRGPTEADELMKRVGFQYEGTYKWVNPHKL

[13] = molecular target: T4, Replicative DNA helicase DnaB (Mycobacterium tuberculosis, UniProt P9WMR3); test: DnaB intein splicing inhibitors, dose response, biochemical, cell-free fluorescence (AID 449749); assay type: functional
T4 sequence (P9WMR3 whole entry): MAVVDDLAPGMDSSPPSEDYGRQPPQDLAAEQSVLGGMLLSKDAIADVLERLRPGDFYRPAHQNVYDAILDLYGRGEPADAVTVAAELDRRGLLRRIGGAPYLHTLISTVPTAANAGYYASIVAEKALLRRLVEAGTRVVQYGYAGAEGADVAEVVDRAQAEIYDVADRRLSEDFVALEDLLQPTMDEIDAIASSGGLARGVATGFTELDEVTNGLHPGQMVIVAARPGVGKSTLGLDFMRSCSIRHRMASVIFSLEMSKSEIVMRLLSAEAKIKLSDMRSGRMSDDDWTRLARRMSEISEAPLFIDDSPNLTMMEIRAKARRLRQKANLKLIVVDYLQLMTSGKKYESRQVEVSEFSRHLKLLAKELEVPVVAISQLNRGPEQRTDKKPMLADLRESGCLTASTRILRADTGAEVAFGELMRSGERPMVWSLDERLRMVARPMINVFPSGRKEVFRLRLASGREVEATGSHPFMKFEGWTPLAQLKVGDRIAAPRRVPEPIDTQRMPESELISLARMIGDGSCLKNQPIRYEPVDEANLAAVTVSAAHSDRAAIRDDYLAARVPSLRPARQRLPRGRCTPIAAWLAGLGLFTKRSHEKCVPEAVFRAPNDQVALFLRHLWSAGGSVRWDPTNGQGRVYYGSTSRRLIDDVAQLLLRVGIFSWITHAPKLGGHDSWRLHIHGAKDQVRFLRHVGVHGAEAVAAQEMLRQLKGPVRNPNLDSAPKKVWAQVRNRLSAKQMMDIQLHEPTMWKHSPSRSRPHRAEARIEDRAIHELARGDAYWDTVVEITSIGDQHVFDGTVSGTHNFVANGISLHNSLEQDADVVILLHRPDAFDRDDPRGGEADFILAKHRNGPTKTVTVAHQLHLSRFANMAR

[14] = cytotoxicity toward NIH3T3 fibroblasts, dose response, counter-screen, cell-based, ATP luminescence, mouse fibroblasts (AID 2010); assay type: functional;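 also: cells exposed to compound for about 90 hours before reading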
[15] = NIH-3T3 fibroblast cytotoxicity, dose response, cytotoxicity control, cell-based, fluorescence, Alamar Blue, secondary assay (AID 2327); assay type: functional;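 also: NIH-3T3 mouse fibroblasts cultured with fluconazole at 8 µg/mL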
[16] = inhibitors of intracellular T. cruzi replication, confirmation, NIH3T3 host cells, beta-gal luminescence (AID 2044); assay type: functional, cell-based;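 also: intracellular parasites grown in NIH/3T3 mouse fibroblasts as host cells; luminescent beta-galactosidase reporter signal from transgenic T. cruzi replicating inside host cells; inhibitors lower the luminescence signal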
[17] = molecular target: Benomyl/methotrexate resistance protein (Candida albicans, UniProt P28873); test: CaMdr1 efflux pump inhibitor potency, dose response, singleplex, Cherry Pick1 hits (AID 588608); assay type: functional
Benomyl/methotrexate resistance protein, sequence (P28873 whole entry): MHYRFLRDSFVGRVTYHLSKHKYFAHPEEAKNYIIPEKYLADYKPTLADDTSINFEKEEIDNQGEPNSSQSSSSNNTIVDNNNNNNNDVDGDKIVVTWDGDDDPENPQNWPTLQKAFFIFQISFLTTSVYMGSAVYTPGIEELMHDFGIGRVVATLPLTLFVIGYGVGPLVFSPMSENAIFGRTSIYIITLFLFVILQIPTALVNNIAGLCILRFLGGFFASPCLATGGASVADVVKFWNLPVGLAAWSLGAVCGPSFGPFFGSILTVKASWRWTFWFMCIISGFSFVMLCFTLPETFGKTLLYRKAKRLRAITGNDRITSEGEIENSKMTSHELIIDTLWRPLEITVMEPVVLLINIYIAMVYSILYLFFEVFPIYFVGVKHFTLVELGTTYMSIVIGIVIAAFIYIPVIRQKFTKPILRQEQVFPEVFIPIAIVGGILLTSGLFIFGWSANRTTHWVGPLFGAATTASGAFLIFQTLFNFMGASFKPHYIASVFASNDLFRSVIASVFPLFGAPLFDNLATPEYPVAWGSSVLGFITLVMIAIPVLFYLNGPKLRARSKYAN

[18] = molecular target: T5, Ubiquitin-conjugating enzyme E2 N (Homo sapiens, UniProt P61088); assay type: functional;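 also: Dose-response confirmation in a TR-FRET assay detecting UBC13-driven polyubiquitin chain formation, inhibition measured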
T5 sequence (P61088 whole entry): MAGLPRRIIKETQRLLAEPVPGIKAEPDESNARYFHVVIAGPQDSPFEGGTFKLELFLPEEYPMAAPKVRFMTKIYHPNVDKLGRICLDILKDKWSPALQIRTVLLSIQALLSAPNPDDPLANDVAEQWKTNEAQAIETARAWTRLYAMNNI

[19] = C. albicans growth with fluconazole, confirmation, fluorescence, retest (AID 2467); assay type: functional, cell-based
[20] = molecular target: T6, Short transient receptor potential channel 4 (Mus musculus, UniProt Q9QUQ5); test: mouse TRPC4 channel inhibitors, dose response, cell-based, HEK293 TRPC4/mu-opioid, Fluo-4 calcium (AID 434942); assay type: functional;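 also: potency of inhibitors blocking the TRPC4 calcium response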
T6 sequence (Q9QUQ5 whole entry): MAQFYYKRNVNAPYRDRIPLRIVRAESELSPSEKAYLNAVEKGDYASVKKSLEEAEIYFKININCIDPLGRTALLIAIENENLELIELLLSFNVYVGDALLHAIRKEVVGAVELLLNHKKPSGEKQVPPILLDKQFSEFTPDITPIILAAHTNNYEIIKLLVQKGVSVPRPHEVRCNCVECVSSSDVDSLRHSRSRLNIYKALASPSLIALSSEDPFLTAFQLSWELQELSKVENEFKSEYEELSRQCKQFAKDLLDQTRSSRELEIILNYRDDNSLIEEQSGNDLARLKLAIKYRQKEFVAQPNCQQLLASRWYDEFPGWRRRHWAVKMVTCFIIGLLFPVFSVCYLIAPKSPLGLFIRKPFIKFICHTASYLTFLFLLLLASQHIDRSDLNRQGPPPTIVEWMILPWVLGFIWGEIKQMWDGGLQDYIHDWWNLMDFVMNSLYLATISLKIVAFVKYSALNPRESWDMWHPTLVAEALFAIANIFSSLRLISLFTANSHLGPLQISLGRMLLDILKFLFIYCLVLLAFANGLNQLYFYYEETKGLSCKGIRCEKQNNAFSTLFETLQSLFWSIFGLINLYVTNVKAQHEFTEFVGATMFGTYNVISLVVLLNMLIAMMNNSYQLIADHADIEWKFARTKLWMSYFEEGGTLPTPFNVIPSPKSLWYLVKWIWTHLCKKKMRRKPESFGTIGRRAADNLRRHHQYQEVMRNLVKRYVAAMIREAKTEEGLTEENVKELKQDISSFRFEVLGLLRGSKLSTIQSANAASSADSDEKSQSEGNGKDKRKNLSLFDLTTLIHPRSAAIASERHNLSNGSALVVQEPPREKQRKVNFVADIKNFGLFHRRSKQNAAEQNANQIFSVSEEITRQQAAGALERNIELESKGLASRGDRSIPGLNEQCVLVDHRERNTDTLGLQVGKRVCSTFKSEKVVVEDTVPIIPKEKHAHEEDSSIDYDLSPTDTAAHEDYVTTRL

[21] = molecular target: Tyrosine-protein phosphatase non-receptor type 5 (Homo sapiens, UniProt P54829); test: STEP phosphatase inhibitors, confirmation, biochemical, fluorescence intensity, uHTS hits (AID 602372); assay type: functional; conditions: read-out: IC50_Mean
Tyrosine-protein phosphatase non-receptor type 5, sequence (P54829 whole entry): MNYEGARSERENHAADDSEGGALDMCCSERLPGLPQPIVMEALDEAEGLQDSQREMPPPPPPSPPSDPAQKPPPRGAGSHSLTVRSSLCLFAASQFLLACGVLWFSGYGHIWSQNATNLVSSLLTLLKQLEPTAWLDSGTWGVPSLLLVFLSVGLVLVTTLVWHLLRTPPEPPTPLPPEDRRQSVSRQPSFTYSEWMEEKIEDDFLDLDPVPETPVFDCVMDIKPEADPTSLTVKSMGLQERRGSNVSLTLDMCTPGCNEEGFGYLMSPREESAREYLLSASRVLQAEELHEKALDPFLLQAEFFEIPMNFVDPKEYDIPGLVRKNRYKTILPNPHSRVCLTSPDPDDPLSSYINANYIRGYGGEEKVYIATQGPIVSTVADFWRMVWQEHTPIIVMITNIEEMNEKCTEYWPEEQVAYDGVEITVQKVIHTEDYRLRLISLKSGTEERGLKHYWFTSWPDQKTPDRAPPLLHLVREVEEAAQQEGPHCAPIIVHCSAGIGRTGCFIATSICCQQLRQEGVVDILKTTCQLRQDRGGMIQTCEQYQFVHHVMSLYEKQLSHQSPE

[22] = molecular target: Dual specificity protein phosphatase 3 (Homo sapiens, UniProt P51452); test: VHR phosphatase inhibition, dose response, selectivity assay for STEP inhibitor project, biochemical (AID 602374); assay type: functional; conditions: read-out: IC50_Mean
Dual specificity protein phosphatase 3, sequence (P51452 whole entry): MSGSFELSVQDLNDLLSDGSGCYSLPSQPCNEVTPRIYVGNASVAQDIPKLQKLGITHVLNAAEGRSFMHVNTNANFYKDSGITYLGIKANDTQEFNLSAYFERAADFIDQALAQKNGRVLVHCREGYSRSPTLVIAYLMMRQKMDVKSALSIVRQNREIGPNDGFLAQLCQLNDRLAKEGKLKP

[23] = molecular target: Tyrosine-protein phosphatase non-receptor type 11 (Homo sapiens, UniProt Q06124); test: SHP2 phosphatase inhibition, dose response, selectivity assay for STEP inhibitor project, biochemical (AID 602367); assay type: functional; conditions: read-out: IC50_Mean
[24] = Fluorescence-based cell-based high throughput dose response assay for inhibitors of the interaction of nucleotide-binding oligomerization domain containing 2 (NOD2) and the receptor-interacting serine-threonine kinase 2 (RIPK2).; assay type: functional; conditions: Homo sapiens
[25] = molecular target: Potassium voltage-gated channel subfamily KQT member 2 (Rattus norvegicus, UniProt O88943); test: KCNQ2 potassium channel inhibitors, dose response, cell-based, automated electrophysiology, set II, rat KCNQ2 (AID 588637); assay type: functional

CCOc1ccc(S(=O)(=O)Nc2cc(SCC(=O)O)c(O)c3ccccc23)cc1
EC50 [1]: 78.8 µM (active)
EC50 [2]: 11.9 µM (inconclusive)
EC50 [3]: > 120 µM (not active)
EC50 [4]: 4.23 µM (active)
EC50 [5]: > 120 µM (not active)
AC50 [6]: 36.2 µM (active)
CC50 [7]: 26.6 µM (active)
EC50 [8]: > 120 µM (not active)
IC50 [9]: 7.49 µM (active)
AC50 [10]: 54.4 µM (active)
IC50 [11]: 68.8 µM (inactive)
IC50 [12]: 28.4 µM (inactive)
AC50 [13]: 20.7 µM (active)

O=C(C[n+]1cc(-c2ccc(Cl)c(Cl)c2)n2c1CCC2)N1c2ccccc2Sc2ccccc21
EC50 [14]: > 60 µM (not active)
EC50 [15]: > 150 µM (inactive)
EC50 [16]: 0.845 µM (active)
EC50 [17]: 0.014 µM (active)
IC50 [18]: > 20 µM (inactive)
EC50 [19]: 1.1 µM (active)
EC50 [20]: 1.88 µM (active)

Cc1nn(C)cc1/C=N/NC(=S)Nc1ccccc1
IC50 [21]: 26.5 µM (inactive)
IC50 [22]: 1.22 µM (active)
IC50 [23]: 3.15 µM (active)

Cn1cnc([N+](=O)[O-])c1S(=O)(=O)Oc1cccc2ccccc12
IC50 [24]: 3.4 µM (active)

COc1cc2cc(C(c3nnnn3Cc3ccc(F)cc3)N3CCCCCC3)c(O)nc2cc1OC (stereo not given)
IC50 [25]: 4.96 µM (active)
